Results reported in patent publication US6420120B1, “Use of a polypeptide as cell receptor for adenoviruses” (priority 1997, dated 2002).

How the values were obtained:
Test in all cases: Bifunctional ligand: Ad5Luc3 attachment to peptide-pretreated cells, luciferase activity
Details in all cases: 500 μM peptide, 1 h at 0-4° C. before Ad5Luc3
Swiss-3T3 cells = format: cell-based, murine
Description: (§1) The human cells (HeLa) or murine cells (Swiss-3T3 or NIH-3T3, ATCC CRL-1658) are rinsed and incubated between 0 and 4° C. with an isotonic solution (PBS) containing 500 μM of peptide. After 1 h, the solution is removed and replaced with the viral inoculum (Ad5Luc3) according to a protocol already described (see above or Hong et al., 1997, EMBO J. 16, 2294-2306). The virus is incubated for 1 hour between 0 and 4° C. to allow its attachment, and then the excess nonadsorbed virus is rinsed with culture medium precooled to 4° C. and the cells are again placed at 37° C. in the presence of culture medium preheated to 37° C. The virus is endocytosed at 37° C. and the viral cycle then lasts for 18 to 20 h at 37° C.

NIH-3T3 cells = format: cell-based, murine
Description: as §1

HeLa cells = format: cell-based, human
Description: as §1

Row | Substance | increase in the luciferase activity (number of adsorbed viruses) versus no peptide (Swiss-3T3 cells) | increase in the luciferase activity (number of adsorbed viruses) versus no peptide (NIH-3T3 cells) | increase in the luciferase activity (number of adsorbed viruses) versus no peptide (HeLa cells)
1 | GRP-MH20: bifunctional peptide with reverse orientation, GRP at N-terminus and MH20 at C-terminus, SEQ ID No: 23 (KMYPRGNHWAVGHLMRAIVGFRVQWLRRYFVNGSR; listed as Homo sapiens) | two to three times | eight to ten times | five to six times
2 | MH20-GRP: bifunctional peptide, MH20 at N-terminus fused to GRP (Gastrin Releasing Peptide), SEQ ID No: 22 (RAIVGFRVQWLRRYFVNGSRKMYPRGNHWAVGHLM; listed as Homo sapiens) | identical slope | identical slope | identical slope
